# Assay results from patent publication US20210164992A1, “COMPOSITIONS AND METHODS RELATED TO INNATE RESPONSE TO DNA AND REGULATION OF INTERFERON-BETA” (priority 2018, published 2021).
# Key:
# IFNB1 mRNA [1] = experiment: dsDNA-induced IFNB1 mRNA accumulation in primary human fibroblasts (RT-PCR), Rhein treatment; assay type: cell-based; settings: primary human fibroblasts transfected with dsDNA, measured after 9 h; Rhein added 24 h prior to or at time of transfection; vs DMSO vehicle (FIG. 16)
# IFNB1 mRNA [2] = experiment: IFNB1 mRNA abundance in response to dsDNA in siRNA-treated NHDFs with or without JAK inhibitor (qRT-PCR); assay type: cell-based, human; settings: NHDFs transfected with dsDNA, JAK inhibitor (Pyridone 6) vs DMSO (FIG. 5A)
# HCMV = HCMV reproduction and spread in NHDFs, virus titer (TCID/50); assay type: cell-based, human cytomegalovirus; settings: 1 μM JAK inhibitor (Pyridone 6) vs DMSO
# cellular m^6A effectors = experiment: HCMV-induced accumulation of cellular m^6A effector proteins in NHDFs (immunoblotting); assay type: cell-based, human; settings: NHDFs infected with HCMV (MOI=3); PP242 25 μM vs DMSO (FIG. 1E)
structure (smiles),measurement,setting,value
O=C(O)c1cc(O)c2c(c1)C(=O)c1cccc(O)c1C2=O [Rhein],IFNB1 mRNA production,IFNB1 mRNA [1],dose-dependent inhibition of IFNB1 mRNA production
"CC(C)(C)c1nc2c3cc[nH]c(=O)c3c3cc(F)ccc3c2[nH]1 [JAK inhibitor, Pyridone 6]",kinetics of IFNB1 mRNA accumulation,IFNB1 mRNA [2],faster
same,increase of HCMV reproduction in control siRNA-treated cultures,"HCMV; MOI=0.05, 7 d (FIG. 2D)",less than 10 fold
same,HCMV reproduction in METTL14 siRNA-treated cultures,"HCMV; MOI=0.05, 7 d, compared to control siRNA levels (FIG. 2D)",to a large extent restored HCMV reproduction
CC(C)n1nc(-c2cc3cc(O)ccc3[nH]2)c2c(N)ncnc21 [PP242],HCMV-induced increase in cellular m^6A effectors,cellular m^6A effectors,repressed
